Data: patent US12662483B2, “Cocrystalline forms of FGFR3 inhibitors” (Eli Lilly and Company, priority 2022, dated 2026)
Values after ≈ are worked out from the molar mass of the structure shown.

Columns and labels:
FGFR3 protein = target: T1, FGFR3 protein (Homo sapiens, UniProt P22607); assay: FGFR3 enzyme assay (KinEASE-TK HTRF); format: biochemical; details: at Km ATP, 0.25 nM enzyme
T1 construct: purchased Reaction Biology 1068
Procedure: Enzyme activity was monitored using the KinEASE™-TK Assay Kit (CisBio, Cat. No. 62TK0PEC) according to the manufacturer's instructions. All assays were performed at the respective KmATP for each kinase in KinEASE™ Kinase Buffer.
Titration of Isomers 1, 2, and A were performed in a half-log manner in 100% dimethyl sulfoxide (DMSO) starting at 1 uM. Prior to the initiation of the reaction by adenosine triphosphate (ATP), FGFR1 protein and Isomers 1, 2, and A were pre-incubated for 15 minutes at room temperature, and FGFR3 protein and Isomers 1, 2, and A were pre-incubated on ice for 15 minutes. Reactions proceeded for 30 min at 30° C. Plates were quenched by the addition of the Anti-TK cryptate antibody/Streptavidin-XL665 mixture.
Ratios were converted to a percent of control (POC) using a ratiometric emission factor. One hundred POC was determined using no test compound, and 0 POC was determined in the presence of 1 uM of an appropriate control inhibitor. A 4-parameter logistic curve was fit to the POC values as a function of the concentration of Isomers 1, 2, and A, and the IC50 value was the point where the best fit curve crossed 50 POC.

[1] = Solubility in aqueous and biorelevant media (HPLC of supernatant); details: for solubility at 24 h: thermodynamic from solid
Text: Samples of Isomer 2 IPMC SDD, Isomer 2 HPMC-AS-M SDD, Isomer 2 PVP-VA SDD, and the cocrystalline form of Formula I or Formula II were centrifuged.

[2] = Solid state stability at 40° C./75% RH, caps off; format: physicochemical; details: 40° C. and 75% relative humidity
[3] = Dynamic vapor sorption (DVS); format: physicochemical; details: 25° C.
Procedure: Dynamic vapor sorption (DVS) analysis is obtained at 25° C. using a TA Instruments Q5000SA VTI flow moisture balance running TA Thermal Advantage, v5.2.6 and Universal Analysis 2000, v4.5a Software. The equilibrium criterion was <0.01% weight change in 5 minutes for a maximum of 60 minutes. Humidity verification calibration was performed with sodium bromide. The weight calibration was performed with manufacturer-supplied standards.
A prepared sample of the cocrystalline form of Formula I is characterized by dynamic vapor sorption as having a range of water content from about 1% at 0% RH to about 3.2% at 90% RH.

[4] = fasted simulated intestinal fluid

T1 sequence (P22607 23-806): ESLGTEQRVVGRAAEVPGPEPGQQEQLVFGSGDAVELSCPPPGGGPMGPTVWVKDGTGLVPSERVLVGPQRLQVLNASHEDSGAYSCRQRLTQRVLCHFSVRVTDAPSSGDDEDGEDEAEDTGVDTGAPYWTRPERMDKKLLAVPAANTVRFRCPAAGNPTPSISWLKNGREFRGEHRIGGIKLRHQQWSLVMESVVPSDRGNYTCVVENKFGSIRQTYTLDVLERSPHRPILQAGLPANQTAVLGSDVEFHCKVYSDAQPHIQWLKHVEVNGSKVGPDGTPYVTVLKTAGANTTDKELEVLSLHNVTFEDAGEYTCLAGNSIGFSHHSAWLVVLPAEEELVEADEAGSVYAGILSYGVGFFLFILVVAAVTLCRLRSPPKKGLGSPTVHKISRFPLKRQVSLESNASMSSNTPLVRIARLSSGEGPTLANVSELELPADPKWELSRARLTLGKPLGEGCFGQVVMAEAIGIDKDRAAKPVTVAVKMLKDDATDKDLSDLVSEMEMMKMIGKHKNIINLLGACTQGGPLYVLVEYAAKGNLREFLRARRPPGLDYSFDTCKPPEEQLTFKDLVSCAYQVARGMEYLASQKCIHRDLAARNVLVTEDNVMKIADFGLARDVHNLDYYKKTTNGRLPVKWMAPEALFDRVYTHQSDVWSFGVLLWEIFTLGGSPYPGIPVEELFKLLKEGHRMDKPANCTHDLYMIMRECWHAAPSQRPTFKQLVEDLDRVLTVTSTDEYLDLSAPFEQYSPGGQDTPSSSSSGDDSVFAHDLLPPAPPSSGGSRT

In the case of `Cc1c(-c2cc(O[C@H](CO)c3ccccn3)c3c(Cl)cnn3c2)nnn1C1CCN(C#N)CC1` [Isomer A, 4-[4-[3-chloro-4-[2-hydroxy-1-(2-pyridyl)ethoxy]pyrazolo[1,5-a]pyridin-6-yl]-5-methyl-triazol-1-yl]piperidine-1-carbonitrile, Isomer 1], the IC50 (FGFR3 protein) is reported as under 50 nM.

`Cc1c(-c2cc(O[C@H](CO)c3ccc(F)cn3)c3c(Cl)cnn3c2)nnn1C1CCN(C#N)CC1` [Isomer 2, 4-[4-[3-chloro-4-[1-(5-fluoro-2-pyridyl)-2-hydroxy-ethoxy]pyrazolo[1,5-a]pyridin-6-yl]-5-methyl-triazol-1-yl]piperidine-1-carbonitrile, Isomer 2] showed a solubility at 24 h ([1]; 0.01N aqueous HCl, simulated gastric fluid) of 7 µg/mL (≈ 14.1 µM), a solubility at 24 h ([1]; 0.1N aqueous HCl, simulated gastric fluid) of 12 µg/mL (≈ 24.1 µM) and a solubility at 24 h ([1]; acetate buffer USP, pH 4.5, aqueous buffer) of 6 µg/mL (≈ 12.1 µM). It also gave a solubility at 24 h ([1]; phosphate buffer USP, pH 6, aqueous buffer) of 6 µg/mL (≈ 12.1 µM), a solubility at 24 h ([1]; phosphate buffer USP, pH 7.5, aqueous buffer) of 5 µg/mL (≈ 10.1 µM) and a solubility at 24 h ([1]; simulated gastric fluid) of 47 µg/mL (≈ 94.6 µM). It also gave a solubility at 24 h ([1]; simulated intestinal fluid (fasted), fassif) of 10 µg/mL (≈ 20.1 µM), a solubility at 24 h ([1]; simulated intestinal fluid (fed), fessif) of 38 µg/mL (≈ 76.5 µM) and a solubility at 24 h ([1]; water) of 6 µg/mL (≈ 12.1 µM).

For `Cc1c(-c2cc(O[C@H](CO)c3ccc(F)cn3)c3c(Cl)cnn3c2)nnn1C1CCN(C#N)CC1` (single isomer, unassigned; isomer 2) [cocrystalline form of Formula I, 4-[4-[3-Chloro-4-[1-(5-fluoro-2-pyridyl)-2-hydroxy-ethoxy]pyrazolo[1,5-a]pyridin-6-yl]-5-methyl-triazol-1-yl]piperidine-1-carbonitrile, Isomer 2, Hemi-Gallic Acid Cocrystalline Form, Hemihydrate], the “stability relative to SDD formulations of Isomer 2 (IPMC, HPMC-AS-M, PVP-VA)” value [2] was “more stable”, the “water content by dynamic vapor sorption” value ([3]; 0% RH) was “about 1%” and the “water content by dynamic vapor sorption” value ([3]; 90% RH) was “about 3.2%”. For the same compound, the “solubility relative to Isomer 2 with IPMC SDD” value [1, 4] was “about two to about three times more soluble” and the “solubility relative to freebase form of Isomer 2” value [1, 4] was “about four to about five times more soluble”.
